The values below come from patent US20160281089A1, “PREVENTION OF VIRAL INFECTIVITY” (priority 2005, published 2016).

One data set has as its target RT/RNaseH (Human immunodeficiency virus type 1 group M subtype B, UniProt P04585). The data set can be described thus: Primer extension assay on synthetic RNA2. The format is biochemical, HIV-1. To be noted: synthetic RNA2, FIG. 2B. Also noted: the HIV RT/RNase H is a heterodimer of p66 and p51 with and without RNase H. From the text: To test whether an ODN-mediated activity would preferentially occur at the PPT, we analysed ODNs targeted to the extended PPT (ODN A) or to a region outside of the PPT (ODN CO and an external antisense oligodeoxynucleotide asEXT) in vitro. We used RNA2, which contains the PPT and the binding sites for ODN A, asEXT and ODN CO. […] Indeed, in the reaction mixture containing both ODN A and asEXT primers, extension products, predominantly synthesized by the RT/RNaseH, started with ODN A and not asEXT (FIG. 2B). […] Thus, the ability of the ODN A to mediate RT/RNaseH-dependent cleavage of the viral RNA is PPT-dependent.
(A) Cleavage assay. 10 nM of in vitro transcribed 5′-labeled RNA was hybridized with 10, 100 and 1000 nM of ODN A and incubated in the presence of RT/RNaseH. The cleavage products were analyzed by denaturing PAGE as described in Materials and methods. (B). Primer extension assay. Synthetic RNA2 was hybridized with ODN A, antisense primer (asEXT) or both primers combined, and the primer extension was performed as described in Materials and Methods. Elongation products were analysed by 8 M urea/10% PAGE. (C) Cleavage assay. RNA/ODN hybrids, obtained using 10 nM of RNA2 and 10 nM of ODN A, asPPT or ODN CO were incubated with RT/RNaseH and cleavage products were analyzed by denaturing PAGE as described in Materials and methods. […]

Another data set concerns FUGW virus. The data set is described as follows: Intravaginal treatment of FUGW virus with ODN A, lavage, real-time PCR. In kind it is in vivo, C57BL/6 mice. Particulars: 25 μM ODN, 4 h in the vagina. The source says: In order to analyse the efficiency of the ODN A in the vagina, we used a recombinant retrovirus vector (FUGW) and placed the virus with and without ODN A into the vagina. We recover the virus by lavage and tested the RNA copies by real-time PCR. […] Two different virus concentration were used. The effect can be approved due by adaptation to mucosal condition of the vagina.
The FUGW virus was used, which is a recombinant retrovirus on the basis of HIV but with safety properties. It contains a PPT identical to HIV. The virus was prepared as described (Lois C., Hong E. J., Pease S., Brown E. J. and Baltimore D. (2002). “Germline Transmission and Tissue-Specific Expression of Transgenes Delivered by Lentiviral Vectors”, Science 295, 868-872).
The incubation was followed by a lavage of the vagina. Then lavage samples from the vagina were collected for RNA extraction using QIAamp viral RNA kit. RNA were eluted in 30 μl elution buffer. For reverse transcription, 2 μl RNA were used in 12.5 μl volume and 3 μl of the cDNA were used for real time PCR. Virus reduction is dependent on the ratio of ODN A to virus titer and the reduction is 2 fold for 10^4 IU.

Data set [1] has as its target T1, recombinant M-MuLV RT/RNase H (Moloney murine leukemia virus, UniProt P03355).
T1 construct: The 80 kDa RT/RNase H of M-MuLV is a monomer
The data set is described as follows: In vitro cleavage of synthetic SFFV PPT-RNA with recombinant M-MuLV RT/RNase H. The format is biochemical. Particulars: 5'-end-labelled RNA. The source says:
To test, whether ODN M would have similar effects as ODN A, we tested the ability of ODN M to induce cleavage of SFFV RNA in the presence of the recombinant M-MuLV RT/RNase H. We used synthetic 5′-end-labelled RNA, which contains the extended PPT of SFFV and sequences of the viral genome dose to the PPT. […] M-MuLV RT/RNase H induced ODN M-mediated cleavage in a dose-dependent manner (FIG. 8b left). The cleavage induced by the various ODNs leads to degradation of the SFFV PPT-RNA in vitro as shown (FIG. 8b right). […] We concluded that SFFV could serve as model for HIV.
a. 5′-labeled synthetic PPT-RNAs of SFFV (left) and HIV-1 (right) were annealed and cleaved with recombinant M-MuLV or HIV-1 RT/RNase H in the absence or presence of ODN M or ODN A. Cleavage products were analyzed by 8M urea-containing PAGE (6%). Filled arrowheads correspond to the specific RT/RNase H cleavage sites, open arrowheads to additional cleavage sites. RNase T1-digested RNA (RNase T1) served as marker. M indicates the Decade Marker.
b. Titration of recombinant M-MuLV RT/RNase H in the presence of ODN M (50 nM) and 5′-labeled SFFV-PPT-RNA. […] 5′-labeled SFFV-PPT-RNA or control RNA without PPT (Con.) were hybridized with the ODNs and treated with and without MuLV RT/RNase H for in vitro cleavage as indicated and analyzed by 8M urea-containing PAGE (10%, right).

The test system of a further data set is SFFV virions. The data set can be described thus: Permeabilized cell-free SFFV virions incubated with ODNs, undigested RNA by real-time PCR. The format is biochemical. Particulars: 5 μM ODN, compared to control ODNs or asPPT. As for the experimental part:
In order to further characterize antiviral effects of ODNs, we tested ODN M, asPPT and structural analogs of ODN M in SFFV virions, which contain endogenous RT/RNase H and have an appropriate secondary structure of the RNA. Permeabilized virions were incubated with ODNs, viral RNA was then purified, reverse transcribed and the amount of undigested RNA was quantified by real-time PCR using a set of primers harboring the PPT region of the SFFV genome. […] We observed differences in the antiviral activities between various ODNs. […] Thus, the presence as well as the sequences of both strands of the ODN contributed to the antiviral effect. We noticed previously that the second arm of the ODN is more important intracellularly than in vitro.
a. Cell-free SFFV virions (1×10^3 FFU in 20 μl) were permeabilized and incubated with the indicated ODNs (5 μM). RNA was extracted three days post-treatment and analyzed by quantitative real-time RT-PCR shown as bars (top) and RT-PCR shown as amplifications products on a 1.5% agarose gel (bottom).

In the case of “TTTTCTTTTGGGGGGTTTGGTTGGGTTTTCCCTTCCAGTCCCCCCTTTTCTTTT (phosphorothioate linkages, further chemistry not given here) [ODN A, 25 mer antisense and 25 mer passenger strand connected by T4, phosphorothioated at each end and in linker, targeted to extended PPT of HIV-1]”, the “primer extension by RT/RNaseH compared to asEXT” value with RT/RNaseH is given as “more efficiently”. Moreover, the “reduction of virus RNA copies / titer recovered by lavage” value is listed as “twofold” in the data set with FUGW virus and “factor of two” in the data set with FUGW virus (listed as ODNA A). The sequence further returned a virus reduction in the data set with FUGW virus (10^4 IU FUGW-virus) of 2 fold.

Turning to “TCTTTTTGGGGGGTTTGTTTGTTTTTTCTTTCATTCCCCCCTTTTTCT (chemistry not given here) [ODN M, 22-mer antisense and 22-mer second strand connected by T4, targeted to extended PPT of SFFV]”, the “cleavage of synthetic SFFV PPT-RNA” value in data set [1] is listed as “cleaved”. Besides, the “amount of intact SFFV RNA in virions (antiviral activity)” value in the data set on SFFV virions is “strongest effect”.
